This assay deals with HBV viral load (viral production from HepAD38 cells). The experiment in a line: Activity of test compounds on viral production from HepAD38 cells (viral load by qPCR of HBV core sequence). It is filed as cell-based. To be noted: Hepatitis B virus, HePAD38, 120 h, viral load lowering, 5 days, qPCR of supernatant, read-out: VL HepAD38 EC50 range. How it is done: Assay Measuring Activity of Test Compounds on Viral Production from HepAD38 Cells
HepAD38 cells grown in a T-150 flask (Corning, cat #: 430825) with Growth Medium (DMEM/F12 (1:1) (Hyclone, cat #: SH30023.02), 1× Pen/Strep (Invitrogen, cat #: 15140-122), 10% FBS (Tissue Culture Biologics, cat #: 101), 250 μg/mL G418 (Alfa Aesar, cat #: J62671), 1 μg/mL Tetracycline (Teknova, cat #: T3320)) were detached with 0.25% trypsin-EDTA (Invitrogen, cat #: 25200-056). Tetracycline-free treatment medium (15 mL DMEM/F12 (1:1) 1× Pen/step, with 2% FBS, Tet-system approved (Clontech, cat #: 631106) were then added to mix, transferred into a 50 ml conical tube (Falcon, cat #: 21008-918) and spun at 1300 rpm for 5 min. Pelleted cells were then re-suspended/washed with 50 mL of 1×DPBS (Invitrogen, cat #: 14190-136) 2 times and 50 mL treatment medium twice. HepAD38 cells were then re-suspended with 10 mL of treatment medium, syringed and counted. Wells of 96-well clear bottom TC plate (Corning, cat #: 3904) were seeded at 50,000 cells/well in 180 μL of treatment medium, and 20 μL of either 10% DMSO (Sigma, cat #: D4540) as controls or a 10× solution of test compounds in 10% DMSO in treatment media was added for a final compound concentration starting at 10 μM, and plates were incubated in 5% CO2 incubator at 37° C. for 5 days.
Subsequently viral load production was assayed by quantitative PCR (qPCR) of the HBV core sequence. PCR reaction mixture containing forward primers HBV-f 5′-CTGTGCCTTGGGTGGCITT-3′ (IDT DNA), Reverse primers HBV-r 5′-[…]-3′ (IDT DNA), Fluorescent TaqMan™ Probes HBV-probe 5′-FAM/AGCTCCAAA/ZENMITCTITATAAGGGTCGATGTC/3IABkFQ-3′ (IDT DNA), 10 μL/well of PerfeCTa® qPCR ToughMix® (Quanta Biosciences, Cat #: 95114-05K), and 6 μL/well of DEPC water (Alfa Aesar, cat #: J62087) was prepared. Four μL of supernatant was added to 16 μL of the reaction mixture in a qPCR plate (Applied Biosytems, Cat #: 4309849), sealed with a film (Applied Biosystems, Cat #: 4311971), centrifuged for a few seconds, and subsequently run on an Applied Biosystems VIIA7. The PCR mixture was incubated at 45° C. for 5 min, then 95° C. for 10 min, followed by 40 cycles of 10 seconds at 95° C. and 20 seconds at 60° C. Viral load was quantified against known HBV DNA standards by using ViiA™ 7 Software. Viral load in the supernatant from wells with treated cells were compared against viral load in supernatant from DMSO control wells (3 per plate). Cell viability assay was performed with CellTiter-Glo Luminescent Cell Viability Assay (Promega, cat #: G7573) with modification. Mixed appropriate amount of CellTiter-Glo (CTG) 1×DPBS in a 1:1 ratio, added 100 uL of the mixture to each well followed completely removal of all supernatant in each well without touching cell surface. Incubated the plate at room temperature for 10 min on an orbital shaker, and then read the plate with a plate reader (TECAN M1000 or Envision). EC50 or CC50 values were calculated through curve-fitting of the four-parameter nonlinear-logistic-regression model (GraphPad Prism or Dotmatics). CC50 values were all >10 μM.

On to `Cn1cnc(C2CC3CC(O)(c4cc(OCC(O)C(F)(F)F)nn4C)CC3C2)c1C(=O)Nc1ccc(F)c(Cl)c1` (centres unmarked) [Example 207, N-(3-Chloro-4-fluorophenyl)-4-(5-hydroxy-5-(1-methyl-3-(3,3,3-trifluoro-2-hydroxypropoxy)-1H-pyrazol-5-yl)octahydropentalen-2-yl)-1-methyl-1H-imidazole-5-carboxamide], for which the EC50 was less than 10 nM. Take `CC(=O)NC(C)c1nn(C)cc1C1(O)CC2CC(c3ncn(C)c3C(=O)Nc3ccc(F)c(Cl)c3)CC2C1` (centres unmarked) [Example 185, 4-(5-(3-(1-Acetamidoethyl)-1-methyl-1H-pyrazol-4-yl)-5-hydroxyoctahydropentalen-2-yl)-N-(3-chloro-4-fluorophenyl)-1-methyl-1H-imidazole-5-carboxamide]: the 50% effective concentration (EC50) was less than 10 nM. For the molecule `CC(C)n1cc(Cl)c(C2(O)CC3CC(c4ncn(C)c4C(=O)Nc4ccc(F)c(Cl)c4)CC3C2)n1` (centres unmarked) [Example 154, 4-(5-(4-Chloro-1-isopropyl-1H-pyrazol-3-yl)-5-hydroxyoctahydropentalen-2-yl)-N-(3-chloro-4-fluorophenyl)-1-methyl-1H-imidazole-5-carboxamide], the EC50 is less than 10 nM. As to `Cn1cnc(C2CC3CC(O)(c4cc([N+](=O)[O-])n[nH]4)CC3C2)c1C(=O)Nc1ccc(F)c(Cl)c1` (centres unmarked) [Example 146, N-(3-Chloro-4-fluorophenyl)-4-(5-hydroxy-5-(3-nitro-1H-pyrazol-5-yl)octahydropentalen-2-yl)-1-methyl-1H-imidazole-5-carboxamide], the EC50 is less than 10 nM.

On to `O=C(Nc1ccc(F)c(Cl)c1)c1ocnc1C1CC2CC(O)CC2C1` (centres unmarked) [Example 36, N-(3-Chloro-4-fluorophenyl)-4-(5-hydroxyoctahydropentalen-2-yl)oxazole-5-carboxamide], for which the EC50 was in the range of 50 to 500 nM. Then `CC(C)Cn1nc(OCC(C)(C)O)cc1C1(O)CC2CC(c3ncn(C)c3C(=O)Nc3ccc(F)c(Cl)c3)CC2C1` (centres unmarked) [Example 221, N-(3-Chloro-4-fluorophenyl)-4-(5-hydroxy-5-(3-(2-hydroxy-2-methylpropoxy)-1-isobutyl-1H-pyrazol-5-yl)octahydropentalen-2-yl)-1-methyl-1H-imidazole-5-carboxamide], with less than 10 nM; and `COc1cnn(C)c1C1(O)CC2CC(c3ncn(C)c3C(=O)Nc3ccc(F)c(Cl)c3)CC2C1` (centres unmarked) [Example 134, N-(3-chloro-4-fluorophenyl)-4-(5-hydroxy-5-(4-methoxy-1-methyl-1H-pyrazol-5-yl)octahydropentalen-2-yl)-1-methyl-1H-imidazole-5-carboxamide], with less than 10 nM. As for `Cn1cnc(C2CC3CC(N)CC3C2)c1C(=O)Nc1ccc(F)c(Cl)c1` (centres unmarked) [Example 13, 4-(5-Aminooctahydropentalen-2-yl)-N-(3-chloro-4-fluorophenyl)-1-methyl-1H-imidazole-5-carboxamide], the EC50 fell in the range of 10 to 50 nM. Then `CN(C)S(=O)(=O)c1cc(C2(O)CC3CC(c4ncn(C)c4C(=O)Nc4ccc(F)c(Cl)c4)CC3C2)n(C)n1` (centres unmarked) [Example 100, N-(3-chloro-4-fluorophenyl)-4-(5-(3-(N,N-dimethylsulfamoyl)-1-methyl-1H-pyrazol-5-yl)-5-hydroxyoctahydropentalen-2-yl)-1-methyl-1H-imidazole-5-carboxamide], with less than 10 nM; and `CC(N)c1cc(C2(O)CC3CC(c4ncn(C)c4C(=O)Nc4ccc(F)c(Cl)c4)CC3C2)n(C)n1` (centres unmarked) [Example 112, 4-(5-(3-(1-Aminoethyl)-1-methyl-1H-pyrazol-5-yl)-5-hydroxyoctahydropentalen-2-yl)-N-(3-chloro-4-fluorophenyl)-1-methyl-1H-imidazole-5-carboxamide], with 10 to 50 nM. With `Cn1cnc(-c2ccc(C3CCC(c4ncn(C)c4C(=O)Nc4ccc(F)c(Cl)c4)C3)cc2)c1` (centres unmarked) [Example 14, N-(3-Chloro-4-fluorophenyl)-1-methyl-4-(3-(4-(1-methyl-1H-imidazol-4-yl)phenyl)cyclopentyl)-1H-imidazole-5-carboxamide], the EC50 was less than 10 nM.

Usually EC50 stands for the concentration that produces a half-maximal response.

The values above are taken from patent US12655130B2 (ASSEMBLY BIOSCIENCES, INC., priority 2020, dated 2026).
